In the supplement of paper PMC10307832:

What follows are cell lines tested with O=C(O)C(Cc1ccccc1[N+](=O)[O-])=NNc1nc(-c2ccc(Cl)c(Cl)c2)cs1 (mixture of isomers) [4EGI-1] + O=C(CCCCCCC(=O)Nc1ccccc1)NO [Vorinostat] (partner 1 µM) (assay: relative viability (nuclei count vs DMSO), 5 days (fraction); higher = more cells survive). Conditions: first compound 0.5 µM.
Method in brief: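 Relative viability is defined as nuclei in treated wells over nuclei in vehicle wells. Duplicate plates were run and medians reported. Lung cancer cell lines in 1536-well plates were dosed by pin tool one day after seeding, with one drug or with a fixed anchor-drug dose plus five library-drug doses (not always all listed) in √10 steps, and nuclei were counted after 5 days.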
LOU-NH91 showed a relative viability of 0.993. LU99A was tested, and the relative viability was 0.514. LXF-289 was tested, and the relative viability was 0.79. NCI-H23 was tested, and the relative viability was 0.779. For NCI-H322M, the relative viability was 0.998. NCI-H441 showed a relative viability of 0.727. For NCI-H460, the relative viability was 0.713. NCI-H520 showed a relative viability of 0.877. For NCI-H596, the relative viability was 0.648. Work on NCI-H647 yielded a relative viability of 0.837. Work on NCI-H650 yielded a relative viability of 0.528. For NCI-H661, the relative viability was 0.856. With NCI-H838 the relative viability was 0.724. In the case of NCI-H1355, the relative viability is reported as 0.698. NCI-H1437 was tested, and the relative viability was 0.975. Work on NCI-H1650 yielded a relative viability of 0.637. In the case of NCI-H1651, the relative viability is reported as 0.523. Cell Line NCI-H1666 has a relative viability of 0.997. Cell Line NCI-H1734 has a relative viability of 0.965. Cell Line NCI-H1755 has a relative viability of 0.818. NCI-H1915 was tested, and the relative viability was 0.536. In the case of NCI-H1975, the relative viability is reported as 0.79. NCI-H1993 showed a relative viability of 1.04. For NCI-H2009, the relative viability was 0.798. Cell Line NCI-H2023 has a relative viability of 0.91. For NCI-H2085, the relative viability was 0.922. In the case of NCI-H2087, the relative viability is reported as 0.694. NCI-H2126 was tested, and the relative viability was 0.756. NCI-H2228 showed a relative viability of 0.749. NCI-H2347 showed a relative viability of 0.724. NCI-H2405 was tested, and the relative viability was 1.07. NCI-H3122 gave a relative viability of 1.04. With PC-3 [JPC-3] the relative viability was 0.753.

Same assay, conditions: first compound 1.581 µM
With LU99A the relative viability was 0.421. Work on LXF-289 yielded a relative viability of 0.718. With NCI-H441 the relative viability was 0.909. NCI-H460 gave a relative viability of 0.353. In the case of NCI-H520, the relative viability is reported as 0.73. In the case of NCI-H596, the relative viability is reported as 0.495. NCI-H647 showed a relative viability of 0.53. NCI-H661 gave a relative viability of 0.702. For NCI-H838, the relative viability was 0.732. Work on NCI-H1355 yielded a relative viability of 0.586. Work on NCI-H1437 yielded a relative viability of 0.805. Work on NCI-H1651 yielded a relative viability of 0.477. In the case of NCI-H1666, the relative viability is reported as 1.12. NCI-H1734 gave a relative viability of 0.67. NCI-H1755 gave a relative viability of 0.749. In the case of NCI-H1915, the relative viability is reported as 0.36. With NCI-H1975 the relative viability was 0.679. NCI-H1993 showed a relative viability of 0.678. NCI-H2009 gave a relative viability of 0.701. NCI-H2085 showed a relative viability of 0.815. With NCI-H2087 the relative viability was 0.958. For NCI-H2126, the relative viability was 0.773. NCI-H2228 was tested, and the relative viability was 0.609. NCI-H2347 showed a relative viability of 0.59. In the case of NCI-H3122, the relative viability is reported as 1.11.

Same assay, conditions: first compound 5 µM
LOU-NH91 showed a relative viability of 0.964. Cell Line LU99A has a relative viability of 0.44. Work on LXF-289 yielded a relative viability of 0.787. NCI-H23 showed a relative viability of 0.612. In the case of NCI-H322M, the relative viability is reported as 1.05. NCI-H441 was tested, and the relative viability was 0.75. For NCI-H460, the relative viability was 0.714. Cell Line NCI-H520 has a relative viability of 0.887. In the case of NCI-H596, the relative viability is reported as 0.6. NCI-H647 was tested, and the relative viability was 0.689. NCI-H650 was tested, and the relative viability was 0.472. For NCI-H661, the relative viability was 0.789. NCI-H838 was tested, and the relative viability was 0.738. Cell Line NCI-H1355 has a relative viability of 0.662. NCI-H1437 was tested, and the relative viability was 0.776. NCI-H1650 gave a relative viability of 0.649. NCI-H1651 showed a relative viability of 0.629. In the case of NCI-H1666, the relative viability is reported as 0.949. For NCI-H1734, the relative viability was 0.966. NCI-H1755 gave a relative viability of 0.891. Cell Line NCI-H1915 has a relative viability of 0.599. For NCI-H1975, the relative viability was 0.754. In the case of NCI-H1993, the relative viability is reported as 0.778. For NCI-H2009, the relative viability was 0.822. Work on NCI-H2023 yielded a relative viability of 0.722. For NCI-H2085, the relative viability was 0.823. Cell Line NCI-H2087 has a relative viability of 0.724. NCI-H2126 showed a relative viability of 0.819. In the case of NCI-H2228, the relative viability is reported as 0.588. For NCI-H2347, the relative viability was 0.689. NCI-H2405 gave a relative viability of 1.02. For NCI-H3122, the relative viability was 1.03. For PC-3 [JPC-3], the relative viability was 0.867.

Same assay, conditions: first compound 15.81 µM
Cell Line LOU-NH91 has a relative viability of 0.782. Cell Line LU99A has a relative viability of 0.528. Cell Line LXF-289 has a relative viability of 0.802. Cell Line NCI-H23 has a relative viability of 0.58. NCI-H322M showed a relative viability of 0.8. For NCI-H441, the relative viability was 0.641. In the case of NCI-H460, the relative viability is reported as 0.436. NCI-H520 showed a relative viability of 0.773. Cell Line NCI-H596 has a relative viability of 0.475. For NCI-H647, the relative viability was 0.477. In the case of NCI-H650, the relative viability is reported as 0.488. Work on NCI-H661 yielded a relative viability of 0.681. NCI-H838 showed a relative viability of 0.605. For NCI-H1355, the relative viability was 0.595. NCI-H1437 was tested, and the relative viability was 0.418. NCI-H1650 gave a relative viability of 0.356. With NCI-H1651 the relative viability was 0.481. NCI-H1666 was tested, and the relative viability was 0.992. NCI-H1734 showed a relative viability of 0.545. NCI-H1755 gave a relative viability of 0.853. NCI-H1915 showed a relative viability of 0.542. NCI-H1975 showed a relative viability of 0.7. NCI-H1993 was tested, and the relative viability was 0.524. NCI-H2009 showed a relative viability of 0.736. NCI-H2023 was tested, and the relative viability was 0.138. In the case of NCI-H2085, the relative viability is reported as 0.598. NCI-H2087 showed a relative viability of 0.995. With NCI-H2126 the relative viability was 0.539. NCI-H2228 was tested, and the relative viability was 0.539. NCI-H2347 was tested, and the relative viability was 0.589. NCI-H2405 gave a relative viability of 1.01. NCI-H3122 gave a relative viability of 1.11. Cell Line PC-3 [JPC-3] has a relative viability of 0.418.

Same assay, conditions: first compound 50 µM
Cell Line LOU-NH91 has a relative viability of 0.529. LU99A showed a relative viability of 0.261. LXF-289 was tested, and the relative viability was 0.672. With NCI-H23 the relative viability was 0.165. NCI-H322M showed a relative viability of 0.482. For NCI-H441, the relative viability was 0.414. Cell Line NCI-H460 has a relative viability of 0.0364. For NCI-H520, the relative viability was 0.153. NCI-H596 was tested, and the relative viability was 0.375. With NCI-H647 the relative viability was 0.0731. Work on NCI-H650 yielded a relative viability of 0.296. Cell Line NCI-H661 has a relative viability of 0.353. With NCI-H838 the relative viability was 0.263. NCI-H1355 showed a relative viability of 0.514. NCI-H1437 gave a relative viability of 0.206. NCI-H1650 was tested, and the relative viability was 0.157. Work on NCI-H1651 yielded a relative viability of 0.408. NCI-H1666 was tested, and the relative viability was 0.604. Work on NCI-H1734 yielded a relative viability of 0.329. Work on NCI-H1755 yielded a relative viability of 0.626. NCI-H1915 showed a relative viability of 0.387. For NCI-H1975, the relative viability was 0.357. NCI-H1993 gave a relative viability of 0.349. For NCI-H2009, the relative viability was 0.375. With NCI-H2023 the relative viability was 0.0836. Work on NCI-H2085 yielded a relative viability of 0.295. NCI-H2087 gave a relative viability of 0.343. For NCI-H2126, the relative viability was 0.646. NCI-H2228 gave a relative viability of 0.123. NCI-H2347 showed a relative viability of 0.36. Work on NCI-H2405 yielded a relative viability of 0.35. For NCI-H3122, the relative viability was 0.773. Work on PC-3 [JPC-3] yielded a relative viability of 0.307.
